# Test results reported in PubChem BioAssay AID2060511 (Molecular Pharmacology Branch, DTP, NCI, 2025).
# System: 422866-222-R5-J1-PDC spheroids with HUVEC/MSC, viability
# Assay: Anticancer human tumor 422866-222-R5-J1-PDC patient-derived pancreatic adenocarcinoma cell line growth inhibition [GQUAD]
# Settings: for IC50: curve of first compound; for viability, T/C: stronger effect = lower value
# Summary of the method: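 Multi-cell-type spheroids of tumor cells with HUVEC and mesenchymal stem cells, treated with drug combinations. Concentrations descend in half-log steps from near clinical Cmax, or from 10 microM where Cmax is unknown; viability read-out.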
# [1] = second compound 0.0316 µM, first compound 0.0316 µM
# [2] = second compound 0.0316 µM, first compound 0.1 µM
# [3] = second compound 0.0316 µM, first compound 0.316 µM
# [4] = second compound 0.0316 µM, first compound 1 µM
# [5] = second compound 0.0316 µM, first compound 3.16 µM
# [6] = second compound 0.0316 µM, first compound 10 µM
# [7] = second compound 0.1 µM, first compound 0.0316 µM
# [8] = second compound 0.1 µM, first compound 0.1 µM
# [9] = second compound 0.1 µM, first compound 0.316 µM
# [10] = second compound 0.1 µM, first compound 1 µM
# [11] = second compound 0.1 µM, first compound 3.16 µM
# [12] = second compound 0.1 µM, first compound 10 µM
# [13] = second compound 0.316 µM, first compound 0.0316 µM
# [14] = second compound 0.316 µM, first compound 0.1 µM
# [15] = second compound 0.316 µM, first compound 0.316 µM
# [16] = second compound 0.316 µM, first compound 1 µM
# [17] = second compound 0.316 µM, first compound 3.16 µM
# [18] = second compound 0.316 µM, first compound 10 µM
# [19] = second compound 1 µM, first compound 0.0316 µM
# [20] = second compound 1 µM, first compound 0.1 µM
# [21] = second compound 1 µM, first compound 0.316 µM
# [22] = second compound 1 µM, first compound 1 µM
# [23] = second compound 1 µM, first compound 3.16 µM
# [24] = second compound 1 µM, first compound 10 µM
# [25] = second compound 3.16 µM, first compound 0.0316 µM
# [26] = second compound 3.16 µM, first compound 0.1 µM
# [27] = second compound 3.16 µM, first compound 0.316 µM
# [28] = second compound 3.16 µM, first compound 1 µM
# [29] = second compound 3.16 µM, first compound 3.16 µM
# [30] = second compound 3.16 µM, first compound 10 µM
# [31] = second compound 10 µM, first compound 0.0316 µM
# [32] = second compound 10 µM, first compound 0.1 µM
# [33] = second compound 10 µM, first compound 0.316 µM
# [34] = second compound 10 µM, first compound 1 µM
# [35] = second compound 10 µM, first compound 3.16 µM
# [36] = second compound 10 µM, first compound 10 µM
# 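Note: spheroids exposed to compounds for seven days before reading.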
# 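Throughout, for viability, T/C: percent viability relative to DMSO vehicle control taken as 100%.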
smiles,measurement,setting,value
CC(C)(O)C1CCC(Nc2ccc3ncc(-c4cccc(C(F)(F)F)c4)n3n2)CC1 (stereo unspecified) + Cc1[nH]c2ccc(F)cc2c1-c1nc2c3cccnc3c3ncccc3c2[nH]1,IC50,second compound 0.0316 µM,1110 nM
same,IC50,second compound 0.1 µM,833 nM
same,IC50,second compound 0.316 µM,1120 nM
same,IC50,second compound 1 µM,1490 nM
same,IC50,second compound 3.16 µM,421 nM
same,IC50,second compound 10 µM,531 nM
same,"viability, T/C",[1],99.4%
same,"viability, T/C",[2],79.8%
same,"viability, T/C",[3],78.5%
same,"viability, T/C",[4],50.7%
same,"viability, T/C",[5],31.8%
same,"viability, T/C",[6],26.9%
same,"viability, T/C",[7],118%
same,"viability, T/C",[8],103%
same,"viability, T/C",[9],64.7%
same,"viability, T/C",[10],50.9%
same,"viability, T/C",[11],34.1%
same,"viability, T/C",[12],29.8%
same,"viability, T/C",[13],103%
same,"viability, T/C",[14],99.2%
same,"viability, T/C",[15],80.3%
same,"viability, T/C",[16],51.1%
same,"viability, T/C",[17],36.5%
same,"viability, T/C",[18],29.5%
same,"viability, T/C",[19],87.1%
same,"viability, T/C",[20],88.4%
same,"viability, T/C",[21],77.6%
same,"viability, T/C",[22],55.4%
same,"viability, T/C",[23],38.9%
same,"viability, T/C",[24],27.1%
same,"viability, T/C",[25],56%
same,"viability, T/C",[26],63.5%
same,"viability, T/C",[27],52.4%
same,"viability, T/C",[28],39.3%
same,"viability, T/C",[29],37.8%
same,"viability, T/C",[30],29%
same,"viability, T/C",[31],66.3%
same,"viability, T/C",[32],68.3%
same,"viability, T/C",[33],62%
same,"viability, T/C",[34],35.1%
same,"viability, T/C",[35],33.9%
same,"viability, T/C",[36],26%
C#Cc1c(F)ccc2cc(O)cc(-c3ncc4c(N5CC6CCC(C5)N6)nc(OCC56CCCN5CC(F)C6)nc4c3F)c12 (stereo unspecified) + Cc1[nH]c2ccc(F)cc2c1-c1nc2c3cccnc3c3ncccc3c2[nH]1,IC50,second compound 0.0316 µM,2180 nM
same,IC50,second compound 0.1 µM,2230 nM
same,IC50,second compound 0.316 µM,1930 nM
same,IC50,second compound 1 µM,2160 nM
same,IC50,second compound 3.16 µM,736 nM
same,IC50,second compound 10 µM,998 nM
same,"viability, T/C",[1],96.1%
same,"viability, T/C",[2],96.4%
same,"viability, T/C",[3],84.4%
same,"viability, T/C",[4],78%
same,"viability, T/C",[5],30.2%
same,"viability, T/C",[6],43.2%
same,"viability, T/C",[7],106%
same,"viability, T/C",[8],92.1%
same,"viability, T/C",[9],98.4%
same,"viability, T/C",[10],75.3%
same,"viability, T/C",[11],39.1%
same,"viability, T/C",[12],33.4%
same,"viability, T/C",[13],106%
same,"viability, T/C",[14],86%
same,"viability, T/C",[15],84%
same,"viability, T/C",[16],64.4%
same,"viability, T/C",[17],35%
same,"viability, T/C",[18],37.4%
same,"viability, T/C",[19],75.9%
same,"viability, T/C",[20],98.3%
same,"viability, T/C",[21],91.6%
same,"viability, T/C",[22],69%
same,"viability, T/C",[23],40.4%
same,"viability, T/C",[24],40.8%
same,"viability, T/C",[25],87.2%
same,"viability, T/C",[26],75.5%
same,"viability, T/C",[27],70.6%
same,"viability, T/C",[28],42.8%
same,"viability, T/C",[29],30.7%
same,"viability, T/C",[30],34.6%
same,"viability, T/C",[31],71.3%
same,"viability, T/C",[32],57.6%
same,"viability, T/C",[33],67%
same,"viability, T/C",[34],46.9%
same,"viability, T/C",[35],39.4%
same,"viability, T/C",[36],38%
CC1COCCN1c1cc(C2(O)CC3CCC(C2)O3)c2cnn(-c3ccn[nH]3)c2n1 (stereo unspecified) + Cc1[nH]c2ccc(F)cc2c1-c1nc2c3cccnc3c3ncccc3c2[nH]1,IC50,second compound 0.0316 µM,31.6 nM
same,IC50,second compound 0.1 µM,> 10000 nM
same,IC50,second compound 0.316 µM,> 10000 nM
same,IC50,second compound 1 µM,> 10000 nM
same,IC50,second compound 3.16 µM,< 31.6 nM
same,IC50,second compound 10 µM,> 10000 nM
same,"viability, T/C",[1],74.6%
same,"viability, T/C",[2],47.4%
same,"viability, T/C",[3],48.1%
same,"viability, T/C",[4],48%
same,"viability, T/C",[5],87.5%
same,"viability, T/C",[6],92%
same,"viability, T/C",[7],73.3%
same,"viability, T/C",[8],55.9%
same,"viability, T/C",[9],42.1%
same,"viability, T/C",[10],62.2%
same,"viability, T/C",[11],88%
same,"viability, T/C",[12],90.3%
same,"viability, T/C",[13],85.4%
same,"viability, T/C",[14],52.6%
same,"viability, T/C",[15],37.4%
same,"viability, T/C",[16],79.1%
same,"viability, T/C",[17],97.1%
same,"viability, T/C",[18],109%
same,"viability, T/C",[19],70.4%
same,"viability, T/C",[20],39.1%
same,"viability, T/C",[21],44.1%
same,"viability, T/C",[22],79.9%
same,"viability, T/C",[23],98.2%
same,"viability, T/C",[24],114%
same,"viability, T/C",[25],51.7%
same,"viability, T/C",[26],43.8%
same,"viability, T/C",[27],49.8%
same,"viability, T/C",[28],82.9%
same,"viability, T/C",[29],90.8%
same,"viability, T/C",[30],90.8%
same,"viability, T/C",[31],54.7%
same,"viability, T/C",[32],47.8%
same,"viability, T/C",[33],51.2%
same,"viability, T/C",[34],85.4%
same,"viability, T/C",[35],84.5%
same,"viability, T/C",[36],90.8%
